According to US4552843A, “Process for producing an acidic polycyclic ether antibiotic by cultivation of a novel strain of Streptomyces endus subspecies aureus” (Pfizer Inc., priority 1984, dated 1985):
In brackets after ≈: the same amount, converted by molar mass. Where two headings read alike, the source gives them in different places.

Experiments:
Bacteroides vulgates = experiment: in vitro MIC test (Table I); assay type: cell-based; conditions: 24 h
Method: (§1) In Table I, below, the results of in vitro MIC tests are summarized. For this test each organism is inoculated in a series of test tubes of CP-63,517 to determine the minimal concentration of the antibiotic in mcg/ml which inhibits the growth of the organism over a period of 24 hours (MIC).

Bordatella bronchi = experiment: in vitro MIC test (Table I); assay type: cell-based; conditions: 24 h
Method: as §1

Corynebacterium pyogenes = experiment: in vitro MIC test (Table I); assay type: cell-based; conditions: 24 hours
Method: as §1

Erysip. rhusio = experiment: in vitro MIC test (Table I); assay type: cell-based; conditions: strain 04A005; 24 hours
Method: as §1

F. necrophorum = experiment: in vitro MIC test (Table I); assay type: cell-based; conditions: Fusobacterium necrophorum; strain 84C004; 24 hours
Method: as §1

Fusobacterium plauti = experiment: in vitro MIC test (Table I); assay type: cell-based; conditions: Flavonifractor plautii; strain 84G001; 24 hours
Method: as §1

Haemophilus parahemol. = experiment: in vitro MIC test (Table I); assay type: cell-based; conditions: strain 54B002, 24 hours
Method: as §1

L. catenaforme = experiment: in vitro MIC test (Table I); assay type: cell-based; conditions: strain 09C001; 24 hours
Method: as §1

Lactobacillus casei = experiment: in vitro MIC test (Table I); assay type: cell-based; conditions: Lacticaseibacillus casei; strain 09B001; 24 hours
Method: as §1

Moraxella bovis = experiment: in vitro MIC test (Table I); assay type: cell-based; conditions: strain 93A001, 24 hours
Method: as §1

P. haemolytica = experiment: in vitro MIC test (Table I); assay type: cell-based; conditions: Mannheimia haemolytica, 24 h
Method: as §1

Pasteurella multocida = experiment: in vitro MIC test (Table I); assay type: cell-based; conditions: 24 h
Method: as §1

Peptococcus sp. = experiment: in vitro MIC test (Table I); assay type: cell-based; conditions: strain 17B001; 24 hours
Method: as §1

Staphylococcus aureus = experiment: in vitro MIC test (Table I); assay type: cell-based; conditions: 24 h
Method: as §1

[1] = system: Staphylococcus epidermidis; experiment: in vitro MIC test (Table I); assay type: cell-based; conditions: 24 h
Method: as §1

Streptococcus pyogenes = experiment: in vitro MIC test (Table I); assay type: cell-based; conditions: strain 020054, 24 hours
Method: as §1

Treponema hyodysenteriae = experiment: in vitro MIC test (Table I); assay type: cell-based; conditions: for MIC: 24 hours
Method: as §1

Eimeria acervulina = experiment: efficacy against coccidial infections in chickens (Table II); assay type: in vivo; conditions: for Ratio: lesion score treated / infected control; for % Weight Gain / Average Degree of Infection: chicks; for Average Degree of Infection: lesion score 0 to 3, five days
Method: (§2) Efficacy data for Antibiotic CP-63,517 and its salts against coccidial infections in chickens was obtained in the following fashion. Groups of 3-5 ten-day old SPF white leghorn cockerel chicks were fed a mash diet containing Antibiotic CP-63,517, its sodium and/or potassium salt, or the known agents Monensin or Stenorol uniformly dispersed therein. After being on this ration for 24 hours each chick was inoculated per os with oocysts of the particular species of Eimeria being tested. Other groups of 3-5 ten-day old chicks were fed a similar mash diet free of any test compound. They were also infected after 24 hours and served as infected controls. Yet another group of 3-5 ten-day old chicks were fed the mash diet free of any test compound and were not infected with coccidia. These served as normal controls. The results of treatment were evaluated after five days in the case of E. acervulina, and six days for other challenges.
(§3) ^1 The criteria used to measure anticoccidial activity consisted of
(§4) lesion scores of 0 to 4 for Eimeria tenella after J. E. Lynch, "A New
(§5) Method for the Primary Evaluation of Anticoccidial Activity", Am. J. Vet.
(§6) modification of the scoring system devised by J. Johnson and W. H. Reid,
(§7) "Anticoccidial Drugs. Lesion Scoring Techniques in Battery and Floor Pen
(§8) Experiments in Chicks", Exp. Parasit. 28: 30-36 (1970). A constant ratio
(§9) was established by dividing the lesion score of each treated group by the
(§10) lesion score of the infected control.

Eimeria tenella = experiment: as above; assay type: in vivo; conditions: for Ratio: lesion score treated / infected control; for % Weight Gain / Average Degree of Infection: chicks; for Average Degree of Infection: lesion score 0 to 4, six days
Method: as §2, §3, §4, §5, §6, §7, §8, §9, §10

[2] = 10 ppm in diet, replicate (in parentheses)
[3] = 20 ppm in diet, replicate (in parentheses)
[4] = 30 ppm in diet, replicate (in parentheses)
[5] = 40 ppm in diet, replicate (in parentheses)
[6] = diet of chickens at levels of 5 to 40 ppm

Question: Which results are given for COC1CCC(OC2CC3(CC(O)C(C)C(C(C)C=C(C)C(=O)C(C)CC(C)C(=O)O)O3)OC2(C)C2CCC(C)C3(OC(C4OC(O)(CO)C(C)CC4C)CC3C)O2)OC1C (stereo not drawn) [CP-63,517]?
Answer: MIC (Bacteroides vulgates): 25 µg/mL (≈ 28.8 µM); MIC (Bordatella bronchi; strain 73A006): 0.39 µg/mL (≈ 0.45 µM); MIC (Bordatella bronchi; strain 73A016): 6.25 µg/mL (≈ 7.21 µM); MIC (Corynebacterium pyogenes; Trueperella pyogenes, strain 11D001, read-out: MIC): 12.5 µg/mL (≈ 14.4 µM); MIC (Corynebacterium pyogenes; strain 11D002): 12.5 µg/mL (≈ 14.4 µM); MIC (Corynebacterium pyogenes; strain 11D003): 12.5 µg/mL (≈ 14.4 µM); MIC (Erysip. rhusio): 0.39 µg/mL (≈ 0.45 µM); MIC (F. necrophorum): 25 µg/mL (≈ 28.8 µM); MIC (Fusobacterium plauti): 0.39 µg/mL (≈ 0.45 µM); MIC (Haemophilus parahemol.): 25 µg/mL (≈ 28.8 µM); MIC (L. catenaforme): 0.39 µg/mL (≈ 0.45 µM); MIC (Lactobacillus casei): 0.39 µg/mL (≈ 0.45 µM); MIC (Moraxella bovis): 50 µg/mL (≈ 57.7 µM); MIC (P. haemolytica; strain 59B018): 0.39 µg/mL (≈ 0.45 µM); MIC (P. haemolytica; strain 59B046): 0.39 µg/mL (≈ 0.45 µM); MIC (P. haemolytica; strain 59B061): 50 µg/mL (≈ 57.7 µM); MIC (Pasteurella multocida; strain 59A013): 50 µg/mL (≈ 57.7 µM); MIC (Pasteurella multocida; strain 59A048): 0.39 µg/mL (≈ 0.45 µM); MIC (Peptococcus sp.): ≤ 0.1 µg/mL; MIC (Staphylococcus aureus; strain 01A005): 0.39 µg/mL (≈ 0.45 µM); MIC (Staphylococcus aureus; strain 01A052): 0.39 µg/mL (≈ 0.45 µM); MIC (Staphylococcus aureus; strain 01A106): 0.78 µg/mL (≈ 0.9 µM); MIC (Staphylococcus aureus; strain 01A110): 0.39 µg/mL (≈ 0.45 µM); MIC (Staphylococcus aureus; strain 01A539): 0.78 µg/mL (≈ 0.9 µM); MIC (Staphylococcus aureus; strain 01A543): 3.12 µg/mL (≈ 3.6 µM); MIC ([1]; strain 01B087): 0.78 µg/mL (≈ 0.9 µM); MIC ([1]; strain 01B111): 0.39 µg/mL (≈ 0.45 µM); MIC (Streptococcus pyogenes): 0.1 µg/mL (≈ 0.115 µM); MIC (Treponema hyodysenteriae; Brachyspira hyodysenteriae, strain 94A001, read-out: MIC): 6.25 µg/mL (≈ 7.21 µM); activity against Treponema hyodysenteriae (Treponema hyodysenteriae; in vitro): possesses activity against Treponema hyodysenteriae; MIC (Treponema hyodysenteriae; strain 94A002): 6.25 µg/mL (≈ 7.21 µM); Ratio (Eimeria acervulina; 5 ppm in diet): 1.10; Ratio (Eimeria acervulina; 10 ppm in diet): 0.50; Ratio (Eimeria acervulina; [2]): 0.30; Ratio (Eimeria acervulina; 20 ppm in diet): 0.40; Ratio (Eimeria acervulina; [3]): 0.20; Ratio (Eimeria acervulina; 30 ppm in diet): 0.20; Ratio (Eimeria acervulina; [4]): 0.30; Ratio (Eimeria acervulina; 40 ppm in diet): 0.60; Ratio (Eimeria acervulina; [5]): 0.60; % Weight Gain (Eimeria acervulina; 5 ppm in diet): 11%; Average Degree of Infection (Eimeria acervulina; 5 ppm in diet): 2.2; % Weight Gain (Eimeria acervulina; 10 ppm in diet): 40%; Average Degree of Infection (Eimeria acervulina; 10 ppm in diet): 1.0; Average Degree of Infection (Eimeria acervulina; [2]): 0.6; % Weight Gain (Eimeria acervulina; [2]): 0%; % Weight Gain (Eimeria acervulina; 20 ppm in diet): 30%; Average Degree of Infection (Eimeria acervulina; 20 ppm in diet): 0.8; Average Degree of Infection (Eimeria acervulina; [3]): 0.4; % Weight Gain (Eimeria acervulina; [3]): 60%; % Weight Gain (Eimeria acervulina; 30 ppm in diet): 0%; Average Degree of Infection (Eimeria acervulina; 30 ppm in diet): 0.4; Average Degree of Infection (Eimeria acervulina; [4]): 0.6; % Weight Gain (Eimeria acervulina; [4]): 0%; % Weight Gain (Eimeria acervulina; 40 ppm in diet): 0%; Average Degree of Infection (Eimeria acervulina; 40 ppm in diet): 1.2; Average Degree of Infection (Eimeria acervulina; [5]): 1.2; % Weight Gain (Eimeria acervulina; [5]): 0%; control of infections due to E. acervulina (Eimeria acervulina; [6]): effective in controlling infections; Ratio (Eimeria tenella; 5 ppm in diet): 0.3; Ratio (Eimeria tenella; 10 ppm in diet): 0.0; Ratio (Eimeria tenella; [2]): 0.3; Ratio (Eimeria tenella; 20 ppm in diet): 0.0; Ratio (Eimeria tenella; [3]): 0.0; Ratio (Eimeria tenella; 30 ppm in diet): 0.0; Ratio (Eimeria tenella; [4]): 0.0; Ratio (Eimeria tenella; 40 ppm in diet): 0.0; Ratio (Eimeria tenella; [5]): 0.0; % Weight Gain (Eimeria tenella; 5 ppm in diet): 63%; Average Degree of Infection (Eimeria tenella; 5 ppm in diet): 1.0; % Weight Gain (Eimeria tenella; 10 ppm in diet): 36%; Average Degree of Infection (Eimeria tenella; 10 ppm in diet): 0.0; Average Degree of Infection (Eimeria tenella; [2]): 1.0; % Weight Gain (Eimeria tenella; [2]): 66%; % Weight Gain (Eimeria tenella; 20 ppm in diet): 14%; Average Degree of Infection (Eimeria tenella; 20 ppm in diet): 0.0; Average Degree of Infection (Eimeria tenella; [3]): 0.0; % Weight Gain (Eimeria tenella; [3]): 26%; % Weight Gain (Eimeria tenella; 30 ppm in diet): 0%; Average Degree of Infection (Eimeria tenella; 30 ppm in diet): 0.0; Average Degree of Infection (Eimeria tenella; [4]): 0.0; % Weight Gain (Eimeria tenella; [4]): 23%; % Weight Gain (Eimeria tenella; 40 ppm in diet): 0%; Average Degree of Infection (Eimeria tenella; 40 ppm in diet): 0.0; Average Degree of Infection (Eimeria tenella; [5]): 0.0; % Weight Gain (Eimeria tenella; [5]): 2%; control of infections due to Eimeria tenella (Eimeria tenella; [6]): effective in controlling infections
